Data on 21 molecules can be found in ChEMBL document CHEMBL5331117, “X-Ray Conformation and Structure-Activity Relationships of MA026, a Reversible Tight Junction Opener” (J Med Chem, 2023).

The first test deals with MDCK-II. Briefly: Induction of claudin-1 mediated tight junction opening in MDCK-II cells assessed as increase in FITC-conjugated dextran incubated for 5 hrs relative to control. In kind it is cell-based. On the set-up: concentration or dose not given beside the values. The following applies: Canis lupus familiaris.
As for `CCCC(=O)N[C@@H](CC(C)C)C(=O)N[C@H](CCC(=O)O)C(=O)N[C@H](CCC(N)=O)C(=O)N[C@@H](C(=O)N[C@H](CC(C)C)C(=O)N[C@@H](CCC(N)=O)C(=O)N[C@@H]1COC(=O)[C@H]([C@@H](C)CC)NC(=O)[C@@H](CCC(N)=O)NC(=O)[C@H](CC(C)C)NC(=O)[C@H](CC(C)C)NC(=O)[C@@H](CCC(N)=O)NC(=O)[C@@H](CC(C)C)NC(=O)[C@@H](C(C)C)NC1=O)C(C)C`, the Activity was -1%.

As for `CCCCCCC[C@@H](O)CC(=O)N[C@@H](CC(C)C)C(=O)N[C@H](CCC(=O)O)C(=O)N[C@H](C)C(=O)N[C@@H](C(=O)N[C@H](CC(C)C)C(=O)N[C@@H](CCC(N)=O)C(=O)N[C@@H]1COC(=O)[C@H]([C@@H](C)CC)NC(=O)[C@@H](CCC(N)=O)NC(=O)[C@H](CC(C)C)NC(=O)[C@H](CC(C)C)NC(=O)[C@@H](CCC(N)=O)NC(=O)[C@@H](CC(C)C)NC(=O)[C@@H](C(C)C)NC1=O)C(C)C`, the Activity amounted to 32%.

`CCCCCCCCCC(=O)N[C@@H](CC(C)C)C(=O)N[C@H](CCC(=O)O)C(=O)N[C@H](CCC(N)=O)C(=O)N[C@@H](C(=O)N[C@H](CC(C)C)C(=O)N[C@H](CCC(N)=O)C(=O)N[C@@H]1COC(=O)[C@H]([C@@H](C)CC)NC(=O)[C@@H](CCC(N)=O)NC(=O)[C@H](CC(C)C)NC(=O)[C@H](CC(C)C)NC(=O)[C@@H](CCC(N)=O)NC(=O)[C@@H](CC(C)C)NC(=O)[C@@H](C(C)C)NC1=O)C(C)C`: the Activity was 0.8%.

For `CCCCCCC(=O)N[C@@H](CC(C)C)C(=O)N[C@H](CCC(=O)O)C(=O)N[C@H](CCC(N)=O)C(=O)N[C@@H](C(=O)N[C@H](CC(C)C)C(=O)N[C@@H](CCC(N)=O)C(=O)N[C@@H]1COC(=O)[C@H]([C@@H](C)CC)NC(=O)[C@@H](CCC(N)=O)NC(=O)[C@H](CC(C)C)NC(=O)[C@H](CC(C)C)NC(=O)[C@@H](CCC(N)=O)NC(=O)[C@@H](CC(C)C)NC(=O)[C@@H](C(C)C)NC1=O)C(C)C`, the Activity was -2.8%.

With `CC[C@H](C)[C@@H]1NC(=O)[C@@H](CCC(N)=O)NC(=O)[C@H](CC(C)C)NC(=O)[C@H](CC(C)C)NC(=O)[C@@H](CCC(N)=O)NC(=O)[C@@H](CC(C)C)NC(=O)[C@@H](C(C)C)NC(=O)[C@H](NC(=O)[C@H](CCC(N)=O)NC(=O)[C@@H](CC(C)C)NC(=O)[C@H](NC(=O)[C@@H](CCC(N)=O)NC(=O)[C@@H](CCC(=O)O)NC(=O)[C@H](CC(C)C)NC(=O)CCC2CCCCC2)C(C)C)COC1=O`, the Activity came to 18.7%.

Regarding `CCCCCCCCCC(=O)N[C@@H](CC(C)C)C(=O)N[C@H](CCC(=O)O)C(=O)N[C@@H](CCC(N)=O)C(=O)N[C@@H](C(=O)N[C@H](CC(C)C)C(=O)N[C@@H](CCC(N)=O)C(=O)N[C@@H]1COC(=O)[C@H]([C@@H](C)CC)NC(=O)[C@@H](CCC(N)=O)NC(=O)[C@H](CC(C)C)NC(=O)[C@H](CC(C)C)NC(=O)[C@@H](CCC(N)=O)NC(=O)[C@@H](CC(C)C)NC(=O)[C@@H](C(C)C)NC1=O)C(C)C`, the Activity amounted to 17.6%.

Take `CC[C@H](C)[C@@H]1NC(=O)[C@@H](CCC(N)=O)NC(=O)[C@H](CC(C)C)NC(=O)[C@H](CC(C)C)NC(=O)[C@@H](CCC(N)=O)NC(=O)[C@@H](CC(C)C)NC(=O)[C@@H](C(C)C)NC(=O)[C@H](NC(=O)[C@H](CCC(N)=O)NC(=O)[C@@H](CC(C)C)NC(=O)[C@H](NC(=O)[C@@H](CCC(N)=O)NC(=O)[C@@H](CCC(=O)O)NC(=O)[C@H](CC(C)C)NC(C)=O)C(C)C)COC1=O`: the Activity was -2.8%.

For `CCCCCCCCCC(=O)N[C@@H](CC(C)C)C(=O)N[C@H](CCC(=O)O)C(=O)N[C@H](CCC(N)=O)C(=O)N[C@@H](C(=O)N[C@H](CC(C)C)C(=O)N[C@@H](CCC(N)=O)C(=O)N[C@@H]1COC(=O)[C@H]([C@@H](C)CC)NC(=O)[C@@H](CCC(N)=O)NC(=O)[C@H](CC(C)C)NC(=O)[C@@H](CC(C)C)NC(=O)[C@@H](CCC(N)=O)NC(=O)[C@@H](CC(C)C)NC(=O)[C@@H](C(C)C)NC1=O)C(C)C`, the Activity is -2%.

Turning to `CCCCCCC[C@@H](O)CC(=O)N[C@@H](CC(C)C)C(=O)N[C@H](CCC(=O)O)C(=O)N[C@H](CCC(N)=O)C(=O)N[C@@H](C(=O)N[C@H](CC(C)C)C(=O)N[C@@H](CCC(N)=O)C(=O)N[C@@H]1COC(=O)[C@H]([C@@H](C)CC)NC(=O)[C@@H](CCC(N)=O)NC(=O)[C@H](CC(C)C)NC(=O)[C@H](CC(C)C)NC(=O)[C@@H](CCC(N)=O)NC(=O)[C@@H](CC(C)C)NC(=O)[C@@H](C)NC1=O)C(C)C`, the Activity is 22.3%.

For `CC[C@H](C)[C@@H]1NC(=O)[C@@H](CCC(N)=O)NC(=O)[C@H](CC(C)C)NC(=O)[C@H](CC(C)C)NC(=O)[C@@H](CCC(N)=O)NC(=O)[C@@H](CC(C)C)NC(=O)[C@@H](C(C)C)NC(=O)[C@H](NC(=O)[C@H](CCC(N)=O)NC(=O)[C@@H](CC(C)C)NC(=O)[C@H](NC(=O)[C@@H](CCC(N)=O)NC(=O)[C@@H](CCC(=O)O)NC(=O)[C@H](CC(C)C)NC(=O)CCCC(C)C)C(C)C)COC1=O`, the Activity was determined as 2.6%.

With `CCCCCCC[C@@H](O)CC(=O)N[C@@H](CC(C)C)C(=O)N[C@H](C)C(=O)N[C@H](CCC(N)=O)C(=O)N[C@@H](C(=O)N[C@H](CC(C)C)C(=O)N[C@@H](CCC(N)=O)C(=O)N[C@@H]1COC(=O)[C@H]([C@@H](C)CC)NC(=O)[C@@H](CCC(N)=O)NC(=O)[C@H](CC(C)C)NC(=O)[C@H](CC(C)C)NC(=O)[C@@H](CCC(N)=O)NC(=O)[C@@H](CC(C)C)NC(=O)[C@@H](C(C)C)NC1=O)C(C)C`, the Activity was 30.7%.

In the case of `CC[C@H](C)[C@@H]1NC(=O)[C@@H](CCC(N)=O)NC(=O)[C@H](CC(C)C)NC(=O)[C@H](CC(C)C)NC(=O)[C@@H](CCC(N)=O)NC(=O)[C@@H](CC(C)C)NC(=O)[C@@H](C(C)C)NC(=O)[C@H](NC(=O)[C@H](CCC(N)=O)NC(=O)[C@@H](CC(C)C)NC(=O)[C@H](NC(=O)[C@@H](CCC(N)=O)NC(=O)[C@@H](CCC(=O)O)NC(=O)[C@H](CC(C)C)NC(=O)CCO)C(C)C)COC1=O`, the Activity was -3%.

In the case of `CCCCCCCCCCCCC(=O)N[C@@H](CC(C)C)C(=O)N[C@H](CCC(=O)O)C(=O)N[C@H](CCC(N)=O)C(=O)N[C@@H](C(=O)N[C@H](CC(C)C)C(=O)N[C@@H](CCC(N)=O)C(=O)N[C@@H]1COC(=O)[C@H]([C@@H](C)CC)NC(=O)[C@@H](CCC(N)=O)NC(=O)[C@H](CC(C)C)NC(=O)[C@H](CC(C)C)NC(=O)[C@@H](CCC(N)=O)NC(=O)[C@@H](CC(C)C)NC(=O)[C@@H](C(C)C)NC1=O)C(C)C`, the Activity amounted to 33.3%.

As for `CCCCCCC[C@@H](O)CC(=O)N[C@@H](CC(C)C)C(=O)N[C@H](CCC(=O)O)C(=O)N[C@H](CCC(N)=O)C(=O)N[C@@H](C(=O)N[C@H](CC(C)C)C(=O)N[C@@H](CCC(N)=O)C(=O)N[C@@H]1COC(=O)[C@H]([C@@H](C)CC)NC(=O)[C@@H](CCC(N)=O)NC(=O)[C@H](CC(C)C)NC(=O)[C@H](CC(C)C)NC(=O)[C@@H](CCC(N)=O)NC(=O)[C@@H](C)NC(=O)[C@@H](C(C)C)NC1=O)C(C)C`, the Activity stood at 10.9%.

For `CCCCCCC[C@@H](O)CC(=O)N[C@@H](CC(C)C)C(=O)N[C@H](CCC(=O)O)C(=O)N[C@H](CCC(N)=O)C(=O)N[C@@H](C(=O)N[C@H](CC(C)C)C(=O)N[C@@H](CCC(N)=O)C(=O)N[C@@H]1COC(=O)[C@H](C)NC(=O)[C@@H](CCC(N)=O)NC(=O)[C@H](CC(C)C)NC(=O)[C@H](CC(C)C)NC(=O)[C@@H](CCC(N)=O)NC(=O)[C@@H](CC(C)C)NC(=O)[C@@H](C(C)C)NC1=O)C(C)C`, the Activity came out at 0.2%.

`CCCCCCCCCC(=O)N[C@@H](CC(C)C)C(=O)N[C@H](CCC(=O)O)C(=O)N[C@H](CCC(N)=O)C(=O)N[C@@H](C(=O)N[C@H](CC(C)C)C(=O)N[C@@H](CCC(N)=O)C(=O)N[C@@H]1COC(=O)[C@H]([C@@H](C)CC)NC(=O)[C@@H](CCC(N)=O)NC(=O)[C@@H](CC(C)C)NC(=O)[C@H](CC(C)C)NC(=O)[C@@H](CCC(N)=O)NC(=O)[C@@H](CC(C)C)NC(=O)[C@@H](C(C)C)NC1=O)C(C)C`: the Activity was -2.3%.

The same test, now with this note: Canis lupus familiaris, filed as opener.
As for `CCCCCCCCCC(=O)N[C@@H](CC(C)C)C(=O)N[C@@H](CCC(=O)O)C(=O)N[C@H](CCC(N)=O)C(=O)N[C@@H](C(=O)N[C@H](CC(C)C)C(=O)N[C@@H](CCC(N)=O)C(=O)N[C@@H]1COC(=O)[C@H]([C@@H](C)CC)NC(=O)[C@@H](CCC(N)=O)NC(=O)[C@H](CC(C)C)NC(=O)[C@H](CC(C)C)NC(=O)[C@@H](CCC(N)=O)NC(=O)[C@@H](CC(C)C)NC(=O)[C@@H](C(C)C)NC1=O)C(C)C`, the Activity stood at 85.4%.

Regarding `CCCCCCCCCC(=O)N[C@@H](CC(C)C)C(=O)N[C@H](CCC(=O)O)C(=O)N[C@H](CCC(N)=O)C(=O)N[C@@H](C(=O)N[C@H](CC(C)C)C(=O)N[C@@H](CCC(N)=O)C(=O)N[C@@H]1COC(=O)[C@H]([C@@H](C)CC)NC(=O)[C@@H](CCC(N)=O)NC(=O)[C@H](CC(C)C)NC(=O)[C@H](CC(C)C)NC(=O)[C@H](CCC(N)=O)NC(=O)[C@@H](CC(C)C)NC(=O)[C@@H](C(C)C)NC1=O)C(C)C`, the Activity came to 47.6%.

For `CCCCCCC[C@@H](O)CC(=O)N[C@@H](CC(C)C)C(=O)N[C@H](CCC(=O)O)C(=O)N[C@H](CCC(N)=O)C(=O)N[C@@H](C(=O)N[C@H](CC(C)C)C(=O)N[C@@H](CCC(N)=O)C(=O)N[C@@H]1COC(=O)[C@H]([C@@H](C)CC)NC(=O)[C@@H](C)NC(=O)[C@H](CC(C)C)NC(=O)[C@H](CC(C)C)NC(=O)[C@@H](CCC(N)=O)NC(=O)[C@@H](CC(C)C)NC(=O)[C@@H](C(C)C)NC1=O)C(C)C`, the Activity came to 122%.

Consider `CCCCCCCCCC(=O)N[C@@H](CC(C)C)C(=O)N[C@H](CCC(=O)O)C(=O)N[C@H](CCC(N)=O)C(=O)N[C@@H](C(=O)N[C@@H](CC(C)C)C(=O)N[C@@H](CCC(N)=O)C(=O)N[C@@H]1COC(=O)[C@H]([C@@H](C)CC)NC(=O)[C@@H](CCC(N)=O)NC(=O)[C@H](CC(C)C)NC(=O)[C@H](CC(C)C)NC(=O)[C@@H](CCC(N)=O)NC(=O)[C@@H](CC(C)C)NC(=O)[C@@H](C(C)C)NC1=O)C(C)C`, for which the Activity is 48.8%.

`CCCCCCCCCC(=O)N[C@@H](CC(C)C)C(=O)N[C@H](CCC(=O)O)C(=O)N[C@H](CCC(N)=O)C(=O)N[C@@H](C(=O)N[C@H](CC(C)C)C(=O)N[C@@H](CCC(N)=O)C(=O)N[C@@H]1COC(=O)[C@H]([C@@H](C)CC)NC(=O)[C@H](CCC(N)=O)NC(=O)[C@H](CC(C)C)NC(=O)[C@H](CC(C)C)NC(=O)[C@@H](CCC(N)=O)NC(=O)[C@@H](CC(C)C)NC(=O)[C@@H](C(C)C)NC1=O)C(C)C`: the Activity came to 63.3%.
